Usually Kd stands for the equilibrium constant for the complex coming apart. Higher therefore signals weaker binding.

For this assay, the target named is T1, HSP90α (Homo sapiens, UniProt P07900).
T1 construct: gene HSP90AA1; Recombinant human HSP90 alpha protein (ab80369)
The experiment in a line: SPR (Biacore T200, […] binding model); supported by CETSA for HSP90 in MDA-MB-231 cells. (In general: In SPR one partner is held on a chip, and binding of the other changes the refractive index at the surface.)

For the compound `C/C=C1/CC[C@H]2[C@@H]3CCC4C[C@@H](NCC)CC[C@]4(C)[C@H]3CC[C@]12C` (stereo partly drawn) [compound 1, (Z)-3β-ethylamino-pregn-17(20)-en], the Kd amounted to 21 µM.
